How the values were obtained:
Assay type in all cases: cell-based, human
[1] = test system: cleaved caspase-3; experiment: Western blot of apoptosis-related protein; settings: Fig. S11b
Procedure: (§1) T24 and J82 cell lines were lysed in protein lysis buffer, which included phosphatase inhibitors and a cocktail of protease inhibitors. A BCA kit (SparkJade, China) was used to determine the total protein concentration. After protein denaturation, SDS-PAGE electrophoresis was performed and the protein transferred from the gel to a PVDF membrane (Millipore, USA). Then primary antibodies against cleaved caspases-3, cleaved PARP, AKT, phosphorylated AKT, ERK1/2, phosphorylated ERK1/2, EGFR, mTOR, phosphorylated mTOR and Tubulin (CST, USA) were diluted at 1:1000 at 4 °C overnight. The membranes were then washed and incubated with secondary antibodies dissolved in 5% nonfat milk. A chemiluminescence imaging system was used to detect the signals (Tanon, China).
(§2) Furthermore, treatment with CHNQD-01281 induced a dose-dependent increase in the total apoptosis of T24 and J82 cell lines. […] Meanwhile, the expression of apoptosis-related proteins cleaved PARP and cleaved caspase-3 were detected by Western blot. […] Therefore, CHNQD-01281 can induce DNA damage to arrest the cell cycle at the G0/G1 phase, affect the expression of DNA damage repair enzyme PARP, and finally induce apoptosis of bladder cancer cell lines.

[2] = test system: cleaved PARP; experiment: Western blot of apoptosis-related protein; settings: Fig. S11b
Procedure: as §1, §2

[3] = test system: BEL-7402 cells; experiment: MTT cell proliferation assay
Procedure: (§3) Human tumor cell lines Eca-109, BEL-7402, BxPC-3, HCT-116, HT-29, T24, HCT-8, SGC-7901, DLD-1, TE-1, BT-549, MGC-803 and human hepatocyte cell line L-02 were cultured in Roswell Park Memorial Institute (RPMI) 1640. HuH-7 and SW-480 were cultured in Dulbecco’s modified Eagle’s medium (DMEM). J82, HepG2, Hela, U87 were cultured in Minimum Essential Medium (MEM). Murine bladder cancer cell line, MB49, was cultured in DMEM. The above-mentioned culture medium was provided by GIBCO (Grand Island, USA), contained 10% fetal bovine serum (PAN, Germany), 10 mg/mL of streptomycin, and 10 kU/mL penicillin (Beyotime, China).
(§4) Cells were seeded in 96-well plates and incubated with indicated concentrations of CHNQD-01281 for indicated periods. Next, medium was discarded and MTT (5 mg/mL) was added to each well. The cells were incubated at 37 °C for another 4 h. After that, supernatant was discarded, and DMSO was added and incubated at 37 °C for 15 min. Finally, absorbance was measured at 570 nm (Molecular Devices, USA).
(§5) To investigate whether CHNQD-01281 had selective inhibitory effect on cancer cell lines, a variety of human tumor cell lines were assayed by MTT, such as bladder cancer cell lines (J82 and T24), colorectal cancer cell lines (HCT-116, HT-29, HCT-8, DLD-1 and SW-480), cervical cancer cell line (Hela), esophageal cancer cell lines (TE-1 and Eca-109), breast cancer cell line (BT-549), gastric carcinoma cell lines (MGC-803 and SGC-7901), glioma cell line (U87), pancreatic carcinoma cell line (BxPC-3) and hepatocellular carcinoma cell lines (Hep G2, BEL-7402 and HuH-7) (Fig. 2A).

[4] = test system: Eca-109 cells; experiment: MTT cell proliferation assay
Procedure: as §3, §4, §5

[5] = test system: Hela cells; experiment: MTT cell proliferation assay
Procedure: as §3, §4, §5

[6] = test system: TE-1 cells; experiment: MTT cell proliferation assay
Procedure: as §3, §4, §5

[7] = test system: J82 cells; experiment: MTT cell proliferation assay
Procedure: as §3, §4, §5

[8] = test system: DLD-1 cells; experiment: MTT cell proliferation assay
Procedure: as §3, §4, §5

[9] = test system: HCT-8 cells; experiment: MTT cell proliferation assay
Procedure: as §3, §4, §5

[10] = test system: U87 cells; experiment: MTT cell proliferation assay
Procedure: as §3, §4, §5

SMILES: C[C@H]1CCC/C=C/[C@@H]2C[C@H](O)C[C@H]2[C@H](OC(=O)/C=C/c2cccnc2)/C=C/C(=O)O1 [CHNQD-01281, Brefeldin A 4-O-3-(pyridin-3-yl) acrylate]
- maximum expression level of cleaved caspase-3 [1]: 1.23 fold of the control group
- maximum expression level of cleaved PARP [2]: 0.95 fold of the control group
- IC90 ([3]; Homo sapiens, BEL-7402, MTT): 820 nM
- IC50 ([3]; Homo sapiens, BEL-7402, MTT, 72 h): 260 nM
- SI (selectivity index) ([3]; L-02 versus BEL-7402): 4.46
- IC90 ([4]; Homo sapiens, Eca-109, MTT): > 1000 nM
- IC50 ([4]; Homo sapiens, Eca-109, MTT, 72 h): 540 nM
- SI (selectivity index) ([4]; L-02 versus Eca-109): 2.15
- IC90 ([5]; Homo sapiens, Hela, MTT): 780 nM
- IC50 ([5]; Homo sapiens, Hela, MTT, 72 h): 190 nM
- SI (selectivity index) ([5]; L-02 versus Hela): 6.11
- IC90 ([6]; Homo sapiens, TE-1, MTT): > 1000 nM
- IC50 ([6]; Homo sapiens, TE-1, MTT, 72 h): 620 nM
- SI (selectivity index) ([6]; L-02 versus TE-1): 1.87
- inhibition at 1 µM ([7]; Homo sapiens, J82, 1 µmol/L (highest concentration), 24 h): < 50%
- IC90 ([7]; Homo sapiens, J82, MTT): 400 nM
- IC50 ([7]; Homo sapiens, J82, MTT, 72 h): 81 nM
- SI (selectivity index) ([7]; L-02 versus J82): 14.32
- IC90 ([8]; Homo sapiens, DLD-1, MTT): 640 nM
- IC50 ([8]; Homo sapiens, DLD-1, MTT, 72 h): 340 nM
- SI (selectivity index) ([8]; L-02 versus DLD-1): 3.41
- IC90 ([9]; Homo sapiens, HCT-8, MTT): 440 nM
- IC50 ([9]; Homo sapiens, HCT-8, MTT, 72 h): 170 nM
- SI (selectivity index) ([9]; L-02 versus HCT-8): 6.82
- IC90 ([10]; Homo sapiens, U-87 MG, U87, MTT): > 1000 nM
- IC50 ([10]; Homo sapiens, U-87 MG, U87, MTT, 72 h): 650 nM
- SI (selectivity index) ([10]; L-02 versus U87): 1.78

— publication PMC11358582, “Discovery of a potential bladder cancer inhibitor CHNQD-01281 by regulating EGFR and promoting infiltration of cytotoxic T cells” (Marine Life Science & Technology, 2024)
